Legend:
Experiment in all cases: relative viability (nuclei count vs DMSO), 5 days (fraction); higher = more cells survive
Dovitinib + Luminespib = compound: CN1CCN(c2ccc3nc(-c4c(N)c5c(F)cccc5[nH]c4=O)[nH]c3c2)CC1 [Dovitinib] + CCNC(=O)c1noc(-c2cc(C(C)C)c(O)cc2O)c1-c1ccc(CN2CCOCC2)cc1 [Luminespib] (partner 0.01 µM)
In short: (§1)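 Relative viability was taken as the ratio of nuclei in treated wells to nuclei in vehicle wells. Lung cancer cell lines in 1536-well plates received compounds by pin tool one day after seeding, either one drug alone or a fixed anchor-drug dose plus five library-drug doses (not always all listed) in √10 steps. Nuclei were counted on 4× images after 5 days of treatment, and values are medians of duplicate plates.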

Dovitinib + Lapatinib = compound: CN1CCN(c2ccc3nc(-c4c(N)c5c(F)cccc5[nH]c4=O)[nH]c3c2)CC1 [Dovitinib] + CS(=O)(=O)CCNCc1ccc(-c2ccc3ncnc(Nc4ccc(OCc5cccc(F)c5)c(Cl)c4)c3c2)o1 [Lapatinib] (partner 2 µM)
In short: as §1

Dovitinib + Decitabine = compound: CN1CCN(c2ccc3nc(-c4c(N)c5c(F)cccc5[nH]c4=O)[nH]c3c2)CC1 [Dovitinib] + Nc1ncn([C@H]2C[C@H](O)[C@@H](CO)O2)c(=O)n1 [Decitabine] (partner 2 µM)
In short: as §1

Dovitinib + Olaparib = compound: CN1CCN(c2ccc3nc(-c4c(N)c5c(F)cccc5[nH]c4=O)[nH]c3c2)CC1 [Dovitinib] + O=C(c1cc(Cc2n[nH]c(=O)c3ccccc23)ccc1F)N1CCN(C(=O)C2CC2)CC1 [Olaparib] (partner 8 µM)
In short: as §1

| Cell Line | relative viability (Dovitinib + Luminespib; first compound 0.02 µM) | relative viability (Dovitinib + Luminespib; first compound 0.06325 µM) | relative viability (Dovitinib + Luminespib; first compound 0.2 µM) | relative viability (Dovitinib + Luminespib; first compound 0.6325 µM) | relative viability (Dovitinib + Luminespib; first compound 2 µM) | relative viability (Dovitinib + Lapatinib; first compound 0.02 µM) | relative viability (Dovitinib + Lapatinib; first compound 0.06325 µM) | relative viability (Dovitinib + Lapatinib; first compound 0.2 µM) | relative viability (Dovitinib + Lapatinib; first compound 0.6325 µM) | relative viability (Dovitinib + Lapatinib; first compound 2 µM) | relative viability (Dovitinib + Decitabine; first compound 0.02 µM) | relative viability (Dovitinib + Decitabine; first compound 0.06325 µM) | relative viability (Dovitinib + Decitabine; first compound 0.2 µM) | relative viability (Dovitinib + Decitabine; first compound 0.6325 µM) | relative viability (Dovitinib + Decitabine; first compound 2 µM) | relative viability (Dovitinib + Olaparib; first compound 0.02 µM) | relative viability (Dovitinib + Olaparib; first compound 0.06325 µM) | relative viability (Dovitinib + Olaparib; first compound 0.2 µM) | relative viability (Dovitinib + Olaparib; first compound 0.6325 µM) | relative viability (Dovitinib + Olaparib; first compound 2 µM) |
| --- | --- | --- | --- | --- | --- | --- | --- | --- | --- | --- | --- | --- | --- | --- | --- | --- | --- | --- | --- | --- |
| NCI-H2087 | 0.148 | 0.155 | 0.184 | 0.212 | 0.137 | 0.893 | 0.958 | 1.01 | 1.02 | 1.16 | 0.312 | 0.307 | 0.269 | 0.357 | 0.329 | 0.631 | 0.519 | 0.604 | 0.571 | 0.689 |
| LU99A | 0.243 | 0.221 | 0.27 | 0.282 | 0.254 | 0.943 | 0.985 | 1.08 | 0.937 | 0.922 | 0.759 | 0.762 | 0.965 | 0.981 | 0.904 | 0.256 | 0.279 | 0.275 | 0.276 | 0.281 |
| NCI-H1355 | 0.716 | 0.781 | 0.829 | 0.827 | 0.68 | 0.977 | 0.945 | 0.984 | 1.02 | 1.13 | 0.363 | 0.351 | 0.371 | 0.336 | 0.371 | 0.792 | 0.762 | 0.717 | 0.723 | 0.754 |
| NCI-H520 | 0.218 | 0.219 | 0.192 | 0.201 | 0.212 | 0.826 | 0.822 | 0.903 | 0.79 | 0.921 | 0.477 | 0.504 | 0.488 | 0.499 | 0.514 | 0.358 | 0.315 | 0.332 | 0.33 | 0.389 |
| NCI-H661 | 0.87 | 0.93 | 0.924 | 0.936 | 0.975 | 0.562 | 0.512 | 0.51 | 0.437 | 0.483 | 0.573 | 0.591 | 0.652 | 0.571 | 0.595 | 0.68 | 0.749 | 0.738 | 0.774 | 0.752 |
| NCI-H650 | 0.798 | 0.667 | 0.808 | 0.744 | 0.788 | 0.91 | 0.819 | 0.784 | 0.896 | 1.12 | 0.29 | 0.309 | 0.331 | 0.333 | 0.279 | 0.348 | 0.388 | 0.391 | 0.414 | 0.429 |
| NCI-H647 | 0.16 | 0.192 | 0.127 | 0.183 | 0.179 | 1.11 | 1.33 | 1.21 | 1.06 | 0.755 | 0.402 | 0.438 | 0.444 | 0.303 | 0.387 | 0.578 | 0.538 | 0.5 | 0.418 | 0.675 |
| 201T | 0.924 | 1.04 | 1.02 | 1.09 | 1.01 | 0.95 | 0.993 |  | 1.01 | 0.968 | 0.817 | 0.857 | 0.839 | 0.844 | 0.871 | 0.803 | 0.842 | 0.809 | 0.865 | 0.815 |
